ChEMBL document CHEMBL3044616, “Synthesis, crystal structure and -glucuronidase inhibition activity of some new hydrazinecarboxamides and their 1,2,4-triazole derivatives” (Med Chem Res, 2012)
Activity calls are given as the source filed them. The rule behind the calls is not given here.

Assays:
[1] = Inhibition of Escherichia coli beta-glucuronidase using para-nitrophenyl-beta-D-glucuronide as substrate incubated for 30 min prior to substrate addition measured for 30 min by spectrophotometric analysis
[2] = test system: Escherichia coli; assay: Inhibition of Escherichia coli beta-glucuronidase using para-nitrophenyl-beta-D-glucuronide as substrate at 0.2 mM incubated for 30 min prior to substrate addition measured for 30 min by spectrophotometric analysis

Row | SMILES | IC50 [1] [µM] | inhibition [2]
1 | COc1ccccc1CCC(=O)NNC(=O)Nc1ccccc1OC | 67.3 | 77.6%
2 | COc1ccc(-n2c(CCc3ccccc3OC)n[nH]c2=O)cc1 | – | inactive
3 | COc1ccc(Cc2n[nH]c(=O)n2-c2ccccc2OC)cc1 | – | inactive
4 | COc1cccc(CCC(=O)NNC(=O)Nc2ccccc2OC)c1 | 52.4 | 82.9%
5 | COc1cccc(CC(=O)NNC(=O)Nc2cccc(OC)c2)c1 | 101 | 70.8%
6 | COc1cccc(Cc2n[nH]c(=O)n2-c2cccc(OC)c2)c1 | – | inactive
7 | O=C(O)[C@@H](O)[C@H]1OC(=O)[C@H](O)[C@H]1O | – | 86.2%
8 | COc1cccc(CCc2n[nH]c(=O)n2-c2ccccc2OC)c1 | – | inactive
9 | COc1cccc(CCc2n[nH]c(=O)n2-c2cccc(OC)c2)c1 | – | inactive
10 | COc1ccc(NC(=O)NNC(=O)CCc2cccc(OC)c2)cc1 | 74.5 | 73.3%
11 | COc1ccc(CCc2n[nH]c(=O)n2-c2ccccc2OC)cc1 | – | inactive

Next, values leading:

Row | IC50 [1] [µM] | inhibition [2] | SMILES
12 | 96.7 | 59.3% | COc1ccc(CCC(=O)NNC(=O)Nc2cccc(OC)c2)cc1
13 | 179 | 52% | COc1cccc(CCC(=O)NNC(=O)Nc2cccc(OC)c2)c1
14 | 40.7 | 88.8% | COc1ccccc1CC(=O)NNC(=O)Nc1ccccc1OC
15 | 83.7 | 54.6% | COc1cccc(NC(=O)NNC(=O)CCc2ccccc2OC)c1
16 | – | inactive | COc1cccc(-n2c(CCc3ccccc3OC)n[nH]c2=O)c1
17 | 16.8 | 94.5% | COc1ccc(CC(=O)NNC(=O)Nc2ccccc2OC)cc1
18 | – | 46.5% | COc1cccc(NC(=O)NNC(=O)Cc2ccccc2OC)c1
19 | – | inactive | COc1cccc(-n2c(Cc3ccccc3OC)n[nH]c2=O)c1
20 | 46.1 | 83.7% | COc1ccc(CCC(=O)NNC(=O)Nc2ccccc2OC)cc1
21 | – | inactive | COc1ccc(CCc2n[nH]c(=O)n2-c2cccc(OC)c2)cc1
22 | 134 | 68.3% | COc1cccc(CC(=O)NNC(=O)Nc2ccccc2OC)c1
23 | – | inactive | COc1ccccc1CCc1n[nH]c(=O)n1-c1ccccc1OC
24 | – | inactive | COc1cccc(Cc2n[nH]c(=O)n2-c2ccccc2OC)c1
25 | 15.5 | 87.9% | COc1ccc(NC(=O)NNC(=O)CCc2ccccc2OC)cc1
26 | – | inactive | COc1ccccc1Cc1n[nH]c(=O)n1-c1ccccc1OC
